Data on 35 compounds can be found in ChEMBL document CHEMBL4414598, “Trifluorinated Pyrimidine-Based A2B Antagonists: Optimization and Evidence of Stereospecific Recognition” (J Med Chem, 2019).

Molecules are shown by their SMILES.

In test [1] the target is T1, Adenosine receptor A3 (Homo sapiens) (UniProt P0DMS8).
T1 sequence (whole entry): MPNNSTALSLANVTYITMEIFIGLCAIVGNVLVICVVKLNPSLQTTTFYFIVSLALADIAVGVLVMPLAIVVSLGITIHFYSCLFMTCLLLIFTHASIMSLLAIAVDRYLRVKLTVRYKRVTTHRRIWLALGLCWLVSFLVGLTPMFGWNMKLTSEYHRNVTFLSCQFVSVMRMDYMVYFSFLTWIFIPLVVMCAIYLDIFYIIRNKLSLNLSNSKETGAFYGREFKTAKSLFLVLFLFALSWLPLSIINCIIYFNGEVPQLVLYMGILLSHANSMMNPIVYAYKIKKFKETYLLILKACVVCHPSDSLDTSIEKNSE
The experiment in a line: Displacement of [3H]NECA from human A3 receptor expressed in human HeLa cell membranes at 1 uM incubated for 180 mins by radioligand binding competition assay relative to control. On the technique in general: Loss of bound radioactivity is the signal in a displacement assay; it reports binding, not function.

For test [2], the target named is Adenosine receptor A2a (Homo sapiens, UniProt P29274). The experiment in a line: Displacement of [3H]ZM241385 from human recombinant A2A receptor expressed in human HeLa cell membranes at 1 uM incubated for 30 mins by radioligand binding competition assay relative to control.
The target in test [3] is T2, Adenosine receptor A2b (Homo sapiens) (UniProt P29275).
T2 sequence (whole entry): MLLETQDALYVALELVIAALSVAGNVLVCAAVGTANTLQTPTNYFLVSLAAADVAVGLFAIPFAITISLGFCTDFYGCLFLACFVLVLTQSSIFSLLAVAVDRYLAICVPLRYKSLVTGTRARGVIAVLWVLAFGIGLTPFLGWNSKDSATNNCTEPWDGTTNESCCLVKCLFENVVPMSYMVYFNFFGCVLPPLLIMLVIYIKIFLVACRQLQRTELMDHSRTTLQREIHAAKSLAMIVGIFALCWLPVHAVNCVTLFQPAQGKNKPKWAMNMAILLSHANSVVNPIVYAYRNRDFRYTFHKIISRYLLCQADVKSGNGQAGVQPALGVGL
The test is described as follows: Displacement of [3H]DPCPX from human recombinant A2B receptor expressed in human HEK293 cell membranes at 1 uM incubated for 30 mins by radioligand binding competition assay relative to control.

Test [4] concerns the target T3, Adenosine receptor A1 (Homo sapiens) (UniProt P30542).
T3 sequence (whole entry): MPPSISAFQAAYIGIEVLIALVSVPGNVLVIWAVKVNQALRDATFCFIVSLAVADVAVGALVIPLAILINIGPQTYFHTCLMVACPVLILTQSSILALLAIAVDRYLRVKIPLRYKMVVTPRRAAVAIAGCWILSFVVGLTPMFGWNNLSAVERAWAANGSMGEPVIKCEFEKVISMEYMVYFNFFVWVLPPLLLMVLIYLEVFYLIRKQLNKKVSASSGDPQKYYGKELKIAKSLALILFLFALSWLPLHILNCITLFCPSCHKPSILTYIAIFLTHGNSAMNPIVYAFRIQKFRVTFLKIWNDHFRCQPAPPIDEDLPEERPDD
The test is described as follows: Displacement of [3H]DPCPX from human recombinant A1 receptor expressed in CHOA1 cell membranes at 1 uM incubated for 60 mins by radioligand binding competition assay relative to control.

For orientation: inhibition means the share of the control response that was lost under treatment.

Chain of Adenosine receptor A2a (P29274 whole entry): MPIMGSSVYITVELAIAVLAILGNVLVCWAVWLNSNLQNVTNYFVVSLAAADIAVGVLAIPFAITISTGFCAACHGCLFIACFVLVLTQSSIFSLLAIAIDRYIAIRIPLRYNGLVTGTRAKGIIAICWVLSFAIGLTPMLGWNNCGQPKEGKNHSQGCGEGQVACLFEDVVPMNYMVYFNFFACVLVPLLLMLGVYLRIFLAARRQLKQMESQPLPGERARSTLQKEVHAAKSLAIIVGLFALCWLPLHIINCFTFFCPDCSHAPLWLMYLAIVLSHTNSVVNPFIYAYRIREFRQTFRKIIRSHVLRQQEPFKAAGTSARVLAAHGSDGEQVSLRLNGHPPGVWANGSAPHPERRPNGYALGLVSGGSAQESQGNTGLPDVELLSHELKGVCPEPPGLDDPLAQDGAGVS

As for `CC1=C(C(=O)OC(C)C(F)(F)F)C(c2ccsc2)n2c(nc3ccccc32)N1` (racemic), the inhibition amounted to 2% in test [1], 24% in test [2], 47% in test [3] and 2% in test [4].
Consider `CC1=C(C(=O)OC(C)C)C(c2ccsc2)n2c(nc3ccccc32)N1` (configuration not stated), for which the inhibition came out at 21% in test [1], 3% in test [2] and 11% in test [4].
As to `CC1=C(C(=O)OC(C)C(F)(F)F)C(c2ccsc2)NC(=O)N1` (stereo in doubt; 14l-D1), the inhibition came to 2% in test [1], 2% in test [2] and 3% in test [4].
For the compound `CC1=C(C(=O)OCC(F)(F)F)C(c2ccsc2)NC(=O)N1` (racemic), the inhibition in test [1] was determined as 1%; in test [2], 1%; in test [3], 24%; in test [4] it was 2%.
For the compound `CC1=C(C(=O)OC(C)C(F)(F)F)C(c2ccoc2)NC(=O)N1` (stereo in doubt; 14j-D1), the inhibition in test [1] was 12%; in test [2], 1%; in test [4] it was 10%.
In the case of `CC1=C(C(=O)OC(C(F)(F)F)C(F)(F)F)C(c2cccs2)n2c(nc3ccccc32)N1` (racemic), the inhibition in test [1] is 19%; in test [2] it was 10%; in test [3], 7%; in test [4], 11%.
For `CCOC(=O)C1=C(C)Nc2nc3ccccc3n2C1c1ccco1` (configuration not stated), the inhibition was found to be 1% in test [1], 14% in test [2] and 5% in test [4].
For the compound `CCOC(=O)C1=C(C(F)(F)F)Nc2nc3ccccc3n2C1c1cccs1` (racemic), the inhibition in test [1] amounted to 19%; in test [2] it was 4%; in test [3] it was 38%; in test [4] it was 7%.
For `CC1=C(C(=O)OCC(F)(F)F)C(c2cccs2)NC(=O)N1` (racemic) the same measures were 1%, 3%, 1% and 3%.
For `CC1=C(C(=O)OC(C(F)(F)F)C(F)(F)F)C(c2ccsc2)n2c(nc3ccccc32)N1` (racemic) the same measures were 1%, 15%, 1% and 3%.
For `CC1=C(C(=O)OCC(F)(F)F)C(c2ccsc2)n2c(nc3ccccc32)N1` (racemic) the same measures were 2%, 17%, 30% and 7%.
On to `CC1=C(C(=O)OC(C)C(F)(F)F)C(c2ccco2)NC(=O)N1` (stereo in doubt; 14i-D1), for which the values for the inhibition in test [1], in test [2] and in test [4] were 11%, 3% and 1%, respectively.
For the compound `CC(C)OC(=O)C1=C(C(F)(F)F)Nc2nc3ccccc3n2C1c1ccco1` (racemic), the inhibition stood at 5% in test [1], 10% in test [2], 39% in test [3] and 3% in test [4].
The corresponding values for `CC1=C(C(=O)O[C@@H](C)C(F)(F)F)[C@H](c2ccco2)n2c(nc3ccccc32)N1` are 9%, 19%, 35% and 7%.
In the case of `CCOC(=O)C1=C(C)Nc2nc3ccccc3n2C1c1cccs1` (configuration not stated), the inhibition was found to be 1% in test [1], 16% in test [2] and 8% in test [4].
As for `CC1=C(C(=O)OC(C(F)(F)F)C(F)(F)F)C(c2ccco2)NC(=O)N1` (racemic), the inhibition in test [1] turned out to be 2%; in test [2], 1%; in test [3], 1%; in test [4], 6%.
With `CC1=C(C(=O)OCC(F)(F)F)C(c2cccs2)n2c(nc3ccccc32)N1` (racemic), the inhibition in test [1] was found to be 2%; in test [2], 7%; in test [3], 6%; in test [4] it was 1%.
The corresponding values for `CC1=C(C(=O)OC(C(F)(F)F)C(F)(F)F)C(c2ccco2)n2c(nc3ccccc32)N1` (racemic) are 24%, 2%, 16% and 16%.
The corresponding values for `CC1=C(C(=O)OC(C)C(F)(F)F)C(c2ccsc2)NC(=O)N1` (stereo in doubt; 14l-D2) are 1%, 2%, 1% and 3%.
The corresponding values for `CC1=C(C(=O)OC(C(F)(F)F)C(F)(F)F)C(c2ccoc2)n2c(nc3ccccc32)N1` (racemic) are 6%, 10%, 21% and 24%.
Consider `CC1=C(C(=O)OC(C)C(F)(F)F)C(c2cccs2)NC(=O)N1` (stereo in doubt; 14k-D1), for which the inhibition in test [1] is 3%; in test [2] it was 2%; in test [3], 4%; in test [4], 12%.
The corresponding values for `CC1=C(C(=O)O[C@H](C)C(F)(F)F)[C@H](c2ccco2)n2c(nc3ccccc32)N1` are 1%, 2%, 18% and 2%.
On to `CC1=C(C(=O)OC(C(F)(F)F)C(F)(F)F)C(c2ccoc2)NC(=O)N1` (racemic), for which the inhibition in test [1] is 1%; in test [2], 22%; in test [3] it was 2%; in test [4], 7%.
The corresponding values for `CC(C)OC(=O)C1=C(C(F)(F)F)Nc2nc3ccccc3n2C1c1ccsc1` (racemic) are 2%, 3%, 48% and 10%.
As for `CC1=C(C(=O)OC(C)C(F)(F)F)C(c2cccs2)n2c(nc3ccccc32)N1` (racemic), the inhibition in test [1] turned out to be 4%; in test [2] it was 2%; in test [3], 27%; in test [4], 34%.
On to `CC1=C(C(=O)OC(C)C)C(c2cccs2)n2c(nc3ccccc32)N1` (configuration not stated), for which the figures for the inhibition in test [1], in test [2] and in test [4] were 3%, 17% and 1%, respectively.
As for `CC1=C(C(=O)OC(C)C(F)(F)F)C(c2ccoc2)NC(=O)N1` (stereo in doubt; 14j-D2), the inhibition in test [1] is 5%; in test [2], 1%; in test [3] it was 23%; in test [4] it was 1%.
For `CC1=C(C(=O)OC(C(F)(F)F)C(F)(F)F)C(c2cccs2)NC(=O)N1` (racemic), the inhibition was found to be 1% in test [1], 1% in test [2], 1% in test [3] and 9% in test [4].
`CC1=C(C(=O)OC(C)C)C(c2ccoc2)n2c(nc3ccccc32)N1` (configuration not stated): the results for the inhibition in test [1], in test [2] and in test [4] were 2%, 23% and 12%, respectively.
`CC(C)OC(=O)C1=C(C(F)(F)F)Nc2nc3ccccc3n2C1c1cccs1` (racemic): the inhibition in test [1] worked out at 1%; in test [2], 1%; in test [3], 17%; in test [4], 4%.
On to `CC1=C(C(=O)OCC(F)(F)F)[C@H](c2ccco2)n2c(nc3ccccc32)N1`, for which the values for the inhibition in test [1], in test [2] and in test [4] were 8%, 3% and 12%, respectively.
As for `CCOC(=O)C1=C(C)Nc2nc3ccccc3n2C1c1ccsc1` (configuration not stated), the inhibition stood at 2% in test [1], 10% in test [2] and 3% in test [4].
For `CC1=C(C(=O)OC(C)C(F)(F)F)C(c2ccco2)NC(=O)N1` (stereo in doubt; 14i-D2) the same measures were 7%, 1% and 1%.
As to `CCOC(=O)C1=C(C)Nc2nc3ccccc3n2C1c1ccoc1` (configuration not stated), the inhibition in test [1] turned out to be 1%; in test [2] it was 11%; in test [4], 7%.
For `CCOC(=O)C1=C(C(F)(F)F)Nc2nc3ccccc3n2[C@H]1c1ccoc1` the same measures were 3%, 17% and 10%.
